Measured values published in patent US10329317B2, “Quinoline derivative for use in the treatment and prevention of viral infections” (ABIVAX, priority 2015, dated 2019).

Columns and labels:
[1] = target: T1, CBC complex (CBP20 and CBP80) (Homo sapiens, UniProt P52298+Q09161); assay: UV-induced covalent bridging of purified recombinant CBP20 and CBP80 (SDS-PAGE / Western blot); format: binding; conditions: purified recombinant CBP20 and CBP80, UV light, resolved by SDS-PAGE
T1 construct: made in house
T1 sequence (Q09161 20-790 limits assumed): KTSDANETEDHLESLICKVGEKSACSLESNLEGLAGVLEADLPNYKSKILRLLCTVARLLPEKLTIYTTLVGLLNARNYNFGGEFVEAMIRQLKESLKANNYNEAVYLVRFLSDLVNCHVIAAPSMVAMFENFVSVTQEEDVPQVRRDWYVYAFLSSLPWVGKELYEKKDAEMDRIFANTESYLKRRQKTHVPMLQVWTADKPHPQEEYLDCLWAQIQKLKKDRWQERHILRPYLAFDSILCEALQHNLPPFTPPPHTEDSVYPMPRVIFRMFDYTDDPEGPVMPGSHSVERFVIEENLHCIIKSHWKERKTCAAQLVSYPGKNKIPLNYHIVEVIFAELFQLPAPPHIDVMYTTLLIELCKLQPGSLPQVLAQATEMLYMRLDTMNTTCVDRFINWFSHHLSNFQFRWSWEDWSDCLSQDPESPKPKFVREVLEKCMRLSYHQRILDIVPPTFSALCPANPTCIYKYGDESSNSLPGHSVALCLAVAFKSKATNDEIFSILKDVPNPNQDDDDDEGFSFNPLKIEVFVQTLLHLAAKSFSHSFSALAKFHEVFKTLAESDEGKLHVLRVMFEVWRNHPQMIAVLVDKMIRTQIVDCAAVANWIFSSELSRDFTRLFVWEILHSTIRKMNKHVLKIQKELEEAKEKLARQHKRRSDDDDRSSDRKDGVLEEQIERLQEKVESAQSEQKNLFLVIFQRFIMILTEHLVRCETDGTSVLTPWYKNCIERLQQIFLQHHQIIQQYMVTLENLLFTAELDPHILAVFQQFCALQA
T1 sequence (P52298 1-156): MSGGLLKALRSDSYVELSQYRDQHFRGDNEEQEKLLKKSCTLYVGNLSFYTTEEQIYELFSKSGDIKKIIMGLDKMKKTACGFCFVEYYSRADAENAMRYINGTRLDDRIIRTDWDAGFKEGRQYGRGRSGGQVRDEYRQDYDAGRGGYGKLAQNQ
Protocol: FIG. 1A. Compounds 1 and 2 interact with the CBC complex. Purified recombinant CBP20 and CBP80 proteins were incubated with increasing concentrations of Compound 2 (left panel) or Compound 1 (right panel, Gluc) and treated during 30 min (Compound 1) or 15 min (Compound 2) with UV light. […] Left panel: from left to right, incubation with 0.1 (lane 1), 1 (lane 2), 10 (lane 3) and 50 μM (lane 4) […]. Right panel: from left to right, incubation with 1 (lane 1), 10 (lane 2), 50 (lane 3), 100 μM (lane 4) and 200 μM (lane 5) of Compound 1.
The recombinant CBC complex, comprising CBP20 and CBP80, is prepared according to the protocol which has been described in Worch, R. et al. (Specificity of recognition of mRNA 5′ cap by human nuclear cap-binding complex. RNA 11, 1355-1363 (2005)).
Compound 1 can make covalent binding with purified CBC complex after […] irradiation with UV light at 365 nm.
The same results were obtained with the glucuronidated Compound 1, the more soluble derivative of Compound 2 that is produced as metabolite using human hepatocytes.

[2] = target: T2, Recombinant human CBC with capped RNA substrate (Homo sapiens, UniProt P52298+Q09161); assay: Gel-mobility shift assay of CBC binding to capped RNA; conditions: Compound 1 5-100 μM, Compound 2 5-50 μM, m7GpppG 12 mM
T2 construct: made in house
T2 sequence (Q09161 20-790 limits assumed): T1 sequence (Q09161 20-790 limits assumed)
T2 sequence (P52298 1-156): T1 sequence (P52298 1-156)
Protocol: FIG. 1B. […] Recombinant human CBC was incubated with a capped RNA substrate and analyzed by native gel electrophoresis in order to resolve the different RNA and RNA-protein complexes: free RNA (lane 1), and CBC-RNA complexes (lanes 2-10) in the presence of 12 mM of m7GppG (lanes 10) or 5 μM, 10 μM or 50 μM of Compound 2 (lanes 2-5, respectively) and 5 μM, 10 μM, 50 μM or 100 μM of Compound 1 (lanes 6-9, respectively).
Recombinant human CBC was incubated with a capped RNA substrate in the presence of increasing concentrations of compound 1 or compound 2 or a m(7)GpppG cap analogue and analyzed by native gel electrophoresis in order to resolve the different RNA and RNA-protein complexes according to Mazza et al. (Large-scale induced fit recognition of an m(7)GpppG cap analogue by the human nuclear cap-binding complex. EMBO J. 21, 5548-5557 (2002).

covalent bridging between CBP20 and CBP80 after UV irradiation [1]	competition of the complex between CBC and capped RNA [2]	Structure (SMILES)
dose-dependent covalent bridging	no competition	FC(F)(F)Oc1ccc(Nc2ccc3cccc(Cl)c3n2)cc1 [Compound 2, 8-chloro-N-(4-(trifluoromethoxy)phenyl)quinolin-2-amine]
	competed	Cn1c[n+]([C@@H]2O[C@H](COP(=O)(O)OP(=O)([O-])OP(=O)(O)OC[C@H]3O[C@@H](n4cnc5c(=O)[nH]c(N)nc54)[C@H](O)[C@@H]3O)[C@@H](O)[C@H]2O)c2nc(N)[nH]c(=O)c21 [m^7GpppG, reference compound]
